According to ChEMBL document CHEMBL2375248, “C1 and N5 derivatives of cerpegin: synthesis of a new series based on structure-activity relationships to optimize their inhibitory effect on 20S proteasome” (Bioorg Med Chem Lett, 2013):
Active and inactive are the calls of the source. The rule behind the calls is not given here.

Experiments:
[1] = Inhibition of trypsin-like activity of 20S proteasome in rabbit erythrocytes using Boc-LRR-AMC as substrate preincubated for 15 mins measured after 45 mins by fluorescence assay; format: cell-based, Oryctolagus cuniculus
[2] = Inhibition of chymotrypsin-like activity of 20S proteasome in rabbit erythrocytes using Suc-LLVY-AMC as substrate preincubated for 15 mins measured after 45 mins by fluorescence assay; format: cell-based, Oryctolagus cuniculus
[3] = target: Cathepsin B (Homo sapiens) (UniProt P07858); test: Inhibition of cathepsin B in human hepatocytes using Z-RR-AMC as substrate by fluorescence assay; format: cell-based; settings: Hepatocyte
[4] = Inhibition of caspase-like activity of 20S proteasome in rabbit erythrocytes using Z-LLE-betaNA as substrate preincubated for 15 mins measured after 45 mins by fluorescence assay; format: cell-based, Oryctolagus cuniculus
Oryctolagus cuniculus [5] = species on record: Oryctolagus cuniculus; test: Inhibition of caspase-like activity of 20S proteasome in rabbit erythrocytes using Z-LLE-betaNA as substrate at 100 uM preincubated for 15 mins measured after 45 mins by fluorescence assay relative to control
[6] = target: T1, Calpain-1 catalytic subunit (Homo sapiens, UniProt P07384); test: Inhibition of calpain 1 in human erythrocytes using Suc-LLVY-AMC as substrate by fluorescence assay; format: cell-based
T1 sequence (P07384 whole entry): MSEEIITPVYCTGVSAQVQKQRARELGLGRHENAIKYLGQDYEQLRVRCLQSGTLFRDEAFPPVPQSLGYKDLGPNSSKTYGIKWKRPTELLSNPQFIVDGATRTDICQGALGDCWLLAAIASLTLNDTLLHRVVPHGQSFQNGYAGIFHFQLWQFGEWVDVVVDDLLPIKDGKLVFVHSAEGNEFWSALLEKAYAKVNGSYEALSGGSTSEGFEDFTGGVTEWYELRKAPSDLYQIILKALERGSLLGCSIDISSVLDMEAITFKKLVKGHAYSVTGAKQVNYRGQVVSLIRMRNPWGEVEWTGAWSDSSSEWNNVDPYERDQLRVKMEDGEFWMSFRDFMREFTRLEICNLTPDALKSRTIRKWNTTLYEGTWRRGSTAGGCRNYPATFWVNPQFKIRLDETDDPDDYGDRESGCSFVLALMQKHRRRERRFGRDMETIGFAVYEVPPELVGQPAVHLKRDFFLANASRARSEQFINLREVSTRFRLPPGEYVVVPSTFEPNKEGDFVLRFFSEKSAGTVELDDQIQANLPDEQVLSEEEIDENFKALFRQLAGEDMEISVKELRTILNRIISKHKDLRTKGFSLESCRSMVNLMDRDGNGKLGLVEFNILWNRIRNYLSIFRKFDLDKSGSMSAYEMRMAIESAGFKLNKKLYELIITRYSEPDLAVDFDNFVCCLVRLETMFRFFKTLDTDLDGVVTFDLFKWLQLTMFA

Oryctolagus cuniculus [7] = species on record: Oryctolagus cuniculus; test: Inhibition of chymotrypsin-like activity of 20S proteasome in rabbit erythrocytes using Suc-LLVY-AMC as substrate at 100 uM preincubated for 15 mins measured after 45 mins by fluorescence assay relative to control; format: cell-based

Row | SMILES | IC50 [1] | IC50 [2] | inhibition [3] | IC50 ([4]; read-out: IC50) | IC50 [4] | inhibition (Oryctolagus cuniculus [5]) | IC50 [6] | IC50 ([2]; read-out: IC50) | IC50 ([1]; read-out: IC50) | inhibition (Oryctolagus cuniculus [7])
1 | O=C1OC2(CCCCC2)c2ccn(CC(O)CO)c(=O)c21 (configuration not stated) | Not Active | Not Active | inactive | 8.1 µM | – | – | – | – | – | –
2 | CC(C)CC1(C)OC(=O)c2c1ccn(CCc1ccc(Cl)cc1)c2=O (racemic) | Not Active | Not Active | inactive | 12.7 µM | – | – | – | – | – | –
3 | Cc1cc(-n2ccc3c(c2=O)C(=O)OC32CCCCC2)n(-c2ccccc2)n1 | Not Active | Not Active | inactive | – | Not Active | – | – | – | – | –
4 | CCN(CC)CC(O)Cn1ccc2c(c1=O)C(=O)OC21CCCCC1 (configuration not stated) | Not Active | Not Active | inactive | 6.7 µM | – | – | – | – | – | –
5 | Cc1noc(NS(=O)(=O)c2ccc(-n3ccc4c(c3=O)C(=O)OC4(C)C)cc2)c1C | Not Active | Not Active | inactive | – | – | 51% | – | – | – | –
6 | CC1(CCc2ccccc2)OC(=O)c2c1ccn(-c1ccc(S(N)(=O)=O)cc1)c2=O (racemic) | Not Active | Not Active | inactive | 2.8 µM | – | – | – | – | – | –
7 | CC1(C)OC(=O)c2c1ccn(-c1ccc(S(N)(=O)=O)cc1)c2=O | Not Active | Not Active | inactive | 6.1 µM | – | – | – | – | – | –
8 | CC(=O)NS(=O)(=O)c1ccc(-n2ccc3c(c2=O)C(=O)OC3(C)C)cc1 | Not Active | Not Active | inactive | 5.7 µM | – | – | – | – | – | –
9 | CC1(C)OC(=O)c2c1ccn(-c1ccc(S(=O)(=O)Nc3ccnn3-c3ccccc3)cc1)c2=O | Not Active | Not Active | inactive | – | – | 28% | – | – | – | –
10 | O=C1OC2(CCCCC2)c2ccn(CCCN3CCOCC3)c(=O)c21 | Not Active | Not Active | inactive | 46.9 µM | – | – | – | – | – | –
11 | CC1(Cc2ccccc2)OC(=O)c2c1ccn(CCc1ccc(Cl)cc1)c2=O (racemic) | Not Active | – | inactive | 7 µM | – | – | 29.6 µM | 22.5 µM | – | –
12 | CCN(CC)CC(O)Cn1ccc2c(c1=O)C(=O)OC21CCOC(C)(C)C1 (configuration not stated) | Not Active | Not Active | inactive | 4.1 µM | – | – | – | – | – | –
13 | CC(C)CC1(C)OC(=O)c2c1ccn(CCCN1CCOCC1)c2=O (racemic) | Not Active | Not Active | inactive | – | – | 31.8% | – | – | – | –
14 | CCN(CC)CC(O)Cn1ccc2c(c1=O)C(=O)OC2(C)CCc1ccccc1 (mixture of isomers) | Not Active | Not Active | inactive | 2.5 µM | – | – | – | – | – | –
15 | CC1(Cc2ccccc2)OC(=O)c2c1ccn(-c1ccc(S(N)(=O)=O)cc1)c2=O (racemic) | Not Active | Not Active | inactive | 3.6 µM | – | – | – | – | – | –
16 | CC1(CCc2ccccc2)OC(=O)c2c1ccn(CCCN1CCOCC1)c2=O (racemic) | Not Active | Not Active | inactive | 19.6 µM | – | – | – | – | – | –
17 | C[C@@]12OC(=O)[C@]1([C@@H](O)[C@@H]1C=CCCC1)NC(=O)[C@@H]2CCCl [MARIZOMIB] | – | – | – | 0.46 µM | – | – | – | 0.0026 µM | 0.021 µM | –

Row | SMILES | IC50 [1] | IC50 [2] | inhibition [3] | IC50 ([4]; read-out: IC50) | IC50 [4] | inhibition (Oryctolagus cuniculus [5]) | IC50 [6] | IC50 ([2]; read-out: IC50) | IC50 ([1]; read-out: IC50) | inhibition (Oryctolagus cuniculus [7])
18 | Cn1ccc2c(c1=O)C(=O)OC2(C)c1ccccc1 (racemic) | Not Active | Not Active | inactive | 36 µM | – | – | – | – | – | –
19 | CC(C)CC1(C)OC(=O)c2c1ccn(CC(O)c1ccccc1)c2=O (configuration not stated) | Not Active | Not Active | inactive | 4.8 µM | – | – | – | – | – | –
20 | NC(=S)Nn1ccc2c(c1=O)C(=O)OC21CCCCC1 | Not Active | – | inactive | – | Not Active | – | – | – | – | 23.8%
21 | CC1(C)CC2(CCO1)OC(=O)c1c2ccn(CCCN2CCOCC2)c1=O (configuration not stated) | Not Active | Not Active | inactive | 54.7 µM | – | – | – | – | – | –
22 | O=C1OC2(CCCCC2)c2ccn(CC(O)c3ccccc3)c(=O)c21 (configuration not stated) | Not Active | Not Active | inactive | 11.9 µM | – | – | – | – | – | –
23 | O=C1OC2(CCCCC2)c2ccn(CC(O)CN3CCOCC3)c(=O)c21 (configuration not stated) | Not Active | Not Active | inactive | – | – | 30.7% | – | – | – | –
24 | CC1(C)OC(=O)c2c1ccn(-c1ccc(S(=O)(=O)Nc3ncccn3)cc1)c2=O | Not Active | Not Active | inactive | – | – | 51% | – | – | – | –
25 | CC1(C)OC(=O)c2c1ccn(-c1ccc(S(=O)(=O)NC(=N)N)cc1)c2=O | Not Active | Not Active | inactive | 5.9 µM | – | – | – | – | – | –
26 | CC(C)CC1(C)OC(=O)c2c1ccn(-c1ccc(S(N)(=O)=O)cc1)c2=O (racemic) | Not Active | Not Active | inactive | 4.6 µM | – | – | – | – | – | –
27 | CC1(C)OC(=O)c2c1ccn(-c1ccc(S(=O)(=O)NC(=O)c3ccccc3)cc1)c2=O | Not Active | Not Active | inactive | 4.5 µM | – | – | – | – | – | –
28 | NS(=O)(=O)c1ccc(-n2ccc3c(c2=O)C(=O)OC32CCCCC2)cc1 | Not Active | Not Active | inactive | 6.6 µM | – | – | – | – | – | –
29 | CC1(C)OC(=O)c2c1ccn(-c1ccc(S(=O)(=O)Nc3nccs3)cc1)c2=O | Not Active | Not Active | inactive | – | – | 22% | – | – | – | –
30 | CCC1(C)OC(=O)c2c1ccn(-c1ccc(S(N)(=O)=O)cc1)c2=O (racemic) | Not Active | Not Active | inactive | 4.9 µM | – | – | – | – | – | –
31 | CC1(c2ccccc2)OC(=O)c2c1ccn(CCCN1CCOCC1)c2=O (racemic) | Not Active | Not Active | inactive | 56.4 µM | – | – | – | – | – | –
32 | CCN(CC)CC(O)Cn1ccc2c(c1=O)C(=O)OC2(C)c1ccccc1 (mixture of isomers) | Not Active | Not Active | inactive | 4.4 µM | – | – | – | – | – | –
33 | CC1(C)OC(=O)c2c1ccn(-c1ccc(S(=O)(=O)Nc3ccccn3)cc1)c2=O | Not Active | Not Active | inactive | – | – | 64% | – | – | – | –
